# Key:
# [1] = test system: mammary tumors; details: NMU administered at 55 days of age; cited from earlier work
# [2] = test system: NMU-induced tumorigenesis in mammary glands; test: Prophylaxis of NMU-induced mammary tumorigenesis by intraductal injection; type: in vivo, Sprague Dawley rats; details: rats given NMU 50 mg/kg i.v. after treatment, monitored 8 months
# Experimental: The mammary glands (6 on each side) of six virgin 50 day old Sprague Dawley rats were injected with AdHS-tk on the left side and trypan blue on the right side or left untreated. One rat remained completely untreated with the virus or GCV and served as a positive control for NMU-induced tumorigenesis. On the day of surgery, rats were given an intramuscular injection of 5 μg estradiol valerate and were anesthetized with an isofluorane/O2 mixture. The nipples were cannulated with a 33 gauge needle. Twenty μl of AdHS-tk diluted in trypan blue carrier (1 mM MgCl2, 20 μg/ml polybrene in 10% glycerol, 0.4% trypan blue in saline) at a concentration of 5×10^7 particles/μl were injected into the duct. Carrier control mammary glands received 20 μl of trypan blue carrier alone. An animal was considered treated when at least three glands were successfully injected with trypan blue and another three glands were successfully injected with AdHS-tk. The remaining glands were left untreated. Twelve hrs later, the rats were injected with 125 mg/kg body weight GCV twice daily for three days. […] Five to seven days after GCV treatment, the rats were given an intravenous injection of NMU dissolved in 0.05% acetic acid (Ash Stevens, CO; 50 mg NMU/kg body weight) and were subsequently monitored for general health and the appearance of tumors at weekly intervals for 8 months.
# [3] = test system: ductal carcinoma in situ, MNU-induced tumor formation; test: MNU-induced tumor formation rat model, teat infusion of anticancer agents; type: in vivo, Sprague Dawley rats; details: for incidence of tumor mass formation: within 6 months of MNU-injection; for rats with no visible masses or mammary lesions at necropsy: necropsy Day 180±2
# Source text: The objective of this study was to evaluate the efficacy of five test articles (four marketed anticancer agents), administered directly into the mammary gland ducts via teat infusion, for therapy and prevention of ductal carcinoma in situ in an N-Nitroso-N-Methylurea (MNU)-induced tumor formation rat model. Based upon previous animal studies, candidates were selected for more rigorous evaluation at B Braun Biological Test Center (BTC) in Irvine, Calif. This facility was chosen to continue the preclinical work, started by Dr. Sukumar at JHU in order to support studies with a larger number of animals, in compliance with Good Laboratory Practices.
# The agents were tested in 120 female Sprague Dawley rats (n=20 per treatment). On Day 1, each rat was injected intraperitoneally with MNU to induce tumor formation. […] Rats were weighed prior to MNU injection, prior to intra-ductal infusion, and once weekly throughout the study.
# Rats were observed twice daily for mortality/morbidity and 1-3 times weekly for general appearance, stool appearance, signs of toxicity, and palpable mass formation until death or euthanasia. […] At necropsy, organs and tissues were grossly observed, and the entire bilateral mammary gland system, visible masses, and abnormal tissues were collected and retained in formalin.
# [4] = Pharmacokinetic analysis of venous blood after intraductal administration; type: in vivo, women; details: intraductal carboplatin
# Experimental: (§1) The study was performed in Cancer Hospital, Chinese Academy of Medical Sciences, Beijing, China where the standard of care includes a long preoperative hospital stay prior to mastectomy. Two drugs, pegylated liposomal doxorubicin (PLD) and carboplatin (C) were administered at 3 dose levels (PLD: 10, 20, 50 mg and carboplatin 60, 120, 300 mg) with the highest dose approximating the clinical intravenous dose. There were five subjects in each group with 15 subjects treated with each drug once. After informed consent, under local anesthesia subjects underwent cannulation of 5-8 ducts with intraductal instillation of the drug. Venous blood samples were obtained for pharmacokinetic analysis. The total dosage was divided by the number of cannulated ducts to yield a dose per duct. The breast was removed surgically as planned 2-5 days post treatment and the treated ducts were marked to enable identification on pathological evaluation. Intraductal administration was generally well-tolerated with mild, transient breast discomfort upon administration associated with the rate of infusion. Clinically significant laboratory adverse events were limited to decreases in hemoglobin following mastectomy, consistent with blood loss. […] In the carboplatin arm, three women at the 300 mg dose experienced mild nausea and vomiting.
# [5] = Dose escalation study of intraductal cytotoxic drugs in women prior to mastectomy, safety; type: in vivo; details: 300 mg dose, five subjects per group
# Experimental: as §1
smiles,measurement,setting,value
"CN(N=O)C(N)=O [NMU, N-Nitroso-N-Methylurea]",female rats that develop mammary tumors,[1],90-100%
"Nc1nc(O)c2ncn(COC(CO)CO)c2n1 [No injection; Ganciclovir, Ganciclovir]",% of Glands with Tumor,[2],25.0%
same,No. of Tumors,[2],5
"CC(=O)O[C@H]1C(=O)[C@@]2(C)[C@H]([C@H](OC(=O)c3ccccc3)[C@]3(O)C[C@H](OC(=O)[C@H](O)[C@@H](NC(=O)c4ccccc4)c4ccccc4)C(C)=C1C3(C)C)[C@]1(OC(C)=O)CO[C@@H]1C[C@@H]2O [Taxol®, paclitaxel]",incidence of palpable masses during the course of the study,[3]; 0.15 mg/teat,highest and most rapid
same,number of rats with masses at final observations prior to death or euthanasia,[3]; 0.15 mg/teat intraductal on Day 15,20 of 20
same,rats with visible masses at necropsy,"[3]; 0.15 mg/teat, necropsied 4 months post-MNU injection, 20 rats",20 rats
same,incidence of tumor mass formation,[3]; 0.15 mg/teat,highest incidence of mass formation
N.N.O=C([O-])C1(C(=O)[O-])CCC1.[Pt+2] [carboplatin],rats with no visible masses or mammary lesions at necropsy,[3]; 0.42 mg/teat,5 of 20
same,incidence of palpable masses during the course of the study,[3]; 0.75 mg/teat,lowest and least rapid
same,number of rats with masses at final observations prior to death or euthanasia,[3]; 0.75 mg/teat intraductal on Day 15,11 of 20
same,rats with no visible masses or mammary lesions at necropsy,[3]; 0.75 mg/teat,7 of 19
same,incidence of tumor mass formation,[3]; 0.75 mg/teat,lowest incidence of tumor mass formation
same,plasma ultrafiltrate AUC (area under the curve),[4],consistent with the Calvert Formula using estimated GFR
same,peak time (tmax),[4]; systemic circulation,~30 min
same,mild nausea and vomiting,[5],three
